# Test results from patent US7572783B2 (Amgen Inc., priority 2004, dated 2009).
# Target: T1, human GHSR1a (Homo sapiens, UniProt Q92847)
# T1 construct: expressed in transfected cells
# Experiment: Aequorin luminescent functional assay (intracellular Ca2+, ghrelin-stimulated)
# Details: stable cell line expressing human GHSR1a and apoaequorin; final ghrelin 3x EC50 (20 nM); read-out: Class (based on IC50 values)
# Description: IC50 values of inventive compounds may be assessed as follows. An aequorin (Euroscreen) luminescent assay (Stabels et al., 1997) measuring the intracellular Ca^2+ concentration was used as the functional assay to evaluate the potency of the compounds. A stable cell line, expressing human GHSR1a and apoaequorin in mitochondria was used in the aequorin assay. 5×10^6 cells per mL were incubated at room temperature in HyClone Media (Perbio) supplemented with 2 μM coelenterazine (Molecular Probes). After 2 hrs cells were diluted to 1×10^6 cells per ml in HyClone Medium.
# 50 μL of the cell suspension was added to each well of a 96-well plate containing 50 μL of compound, diluted in HyClone Medium. The cell suspension/compound mixture was incubated for 30 seconds before 50 μL of a 9× EC50 concentrations of a human ghrelin solution, in HyClone Medium, was injected. The final Ghrelin concentration was 3× EC50 (20 nM). Aequorin luminescence elicited by intracellular Ca^2+ in the cells was recorded for a total of 60 seconds with a microplate luminometer (Microlumate, Berthold). IC50 of the compounds in this assay was calculated with Prism 4.
# T1 sequence (Q92847 whole entry): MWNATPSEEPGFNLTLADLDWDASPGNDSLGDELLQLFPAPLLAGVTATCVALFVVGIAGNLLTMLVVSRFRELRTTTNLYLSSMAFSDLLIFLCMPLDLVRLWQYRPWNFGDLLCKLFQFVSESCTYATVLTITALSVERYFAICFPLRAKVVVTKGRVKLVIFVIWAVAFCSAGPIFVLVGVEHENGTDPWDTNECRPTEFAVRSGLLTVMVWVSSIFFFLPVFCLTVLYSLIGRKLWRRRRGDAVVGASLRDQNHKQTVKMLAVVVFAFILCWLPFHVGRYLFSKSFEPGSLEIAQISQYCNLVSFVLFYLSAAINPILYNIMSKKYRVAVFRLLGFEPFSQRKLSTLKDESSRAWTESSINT
row,Compound,IC50
1,"CCc1ccccc1Oc1ccc2c(c1)C(=O)N(C(C(=O)N1CCC(NC3CC3)CC1)C(C)C)CC(=O)N2 (centres unmarked) [4-[1-(4-cyclopropylamino-piperidine-1-carbonyl)-2-methyl-propyl]-7-(2-ethyl-phenoxy)-3,4-dihydro-1H-benzo[e][1,4]diazepine-2,5-dione]",10 to 50 nM
2,"CC(C)C(C(=O)N1CCC(NCCc2ccc(F)cc2)CC1)N1CCc2ccc(Oc3ccc(F)cc3F)cc2C1=O (centres unmarked) [7-(2,4-difluoro-phenoxy)-2-(1-{4-[2-(4-fluoro-phenyl)-ethylamino]-piperidine-1-carbonyl}-2-methyl-propyl)-3,4-dihydro-2H-isoquinolin-1-one]",≤ 10 nM
3,"CC(C)C(C(=O)N1CCC(NCc2ccc(F)cc2)CC1)N1CCc2ccc(Oc3ccc(F)cc3F)cc2C1=O (centres unmarked) [7-(2,4-difluoro-phenoxy)-2-{1-[4-(4-fluoro-benzylamino)-piperidine-1-carbonyl]-2-methyl-propyl}-3,4-dihydro-2H-isoquinolin-1-one]",≤ 10 nM
4,"CC(C)C(c1cccc(CN(C)C)c1)N1CC(=O)Nc2ccc(Oc3ccc(F)cc3F)cc2C1=O (centres unmarked) [7-(2,4-difluoro-phenoxy)-4-[1-(3-dimethylaminomethyl-phenyl)-2-methyl-propyl]-3,4-dihydro-1H-benzo[e][1,4]diazepine-2,5-dione]",≤ 10 nM
5,"CC(C)NCc1cccc(C(C(C)C)N2CC(=O)Nc3ccc(Oc4ccc(F)cc4F)cc3C2=O)c1 (centres unmarked) [7-(2,4-difluoro-phenoxy)-4-{1-[3-(isopropylamino-methyl)-phenyl]-2-methyl-propyl}-3,4-dihydro-1H-benzo[e][1,4]diazepine-2,5-dione]",≤ 10 nM
6,"Cc1cccc(C)c1Oc1ccc2c(c1)C(=O)N(C(C(=O)N1CCC(NCCc3ccc(F)cc3)CC1)C(C)C)CC(=O)N2 (centres unmarked) [7-(2,6-dimethyl-phenoxy)-4-(1-{4-[2-(4-fluoro-phenyl)-ethylamino]-piperidine-1-carbonyl}-2-methyl-propyl)-3,4-dihydro-1H-benzo[e][1,4]diazepine-2,5-dione]",≤ 10 nM
7,"Cc1cccc(C)c1Oc1ccc2c(c1)C(=O)N(C(C(=O)N1CCC(NCc3ccc(F)cc3)CC1)C(C)C)CC(=O)N2 (centres unmarked) [7-(2,6-dimethyl-phenoxy)-4-{1-[4-(4-fluoro-benzylamino)-piperidine-1-carbonyl]-2-methyl-propyl}-3,4-dihydro-1H-benzo[e][1,4]diazepine-2,5-dione]",≤ 10 nM
8,"CCc1ccccc1Oc1ccc2c(c1)C(=O)N(C(C(=O)N1CCC(NCc3ccc(F)cc3)CC1)C(C)C)CC(=O)N2 (centres unmarked) [7-(2-ethyl-phenoxy)-4-{1-[4-(4-fluoro-benzylamino)-piperidine-1-carbonyl]-2-methyl-propyl}-3,4-dihydro-1H-benzo[e][1,4]diazepine-2,5-dione]",10 to 50 nM
9,"CC(C)C(C(=O)N1CCC(NCCc2ccc(F)cc2)CC1)N1CC(=O)Nc2ccc(Oc3ccccc3C(C)(C)C)cc2C1=O (centres unmarked) [7-(2-tert-butyl-phenoxy)-4-(1-{4-[2-(4-fluoro-phenyl)-ethylamino]-piperidine-1-carbonyl}-2-methyl-propyl)-3,4-dihydro-1H-benzo[e][1,4]diazepine-2,5-dione]",50 to 500 nM
10,"CC(C)C(C(=O)N1CCC(NC2CC2)CC1)N1CC(=O)Nc2ccc(Oc3ccccc3C(C)(C)C)cc2C1=O (centres unmarked) [7-(2-tert-butyl-phenoxy)-4-[1-(4-cyclopropylamino-piperidine-1-carbonyl)-2-methyl-propyl]-3,4-dihydro-1H-benzo[e][1,4]diazepine-2,5-dione]",10 to 50 nM
11,"CC(C)C(C(=O)N1CCC(NCc2ccc(F)cc2)CC1)N1CC=Cc2ccc(Oc3ccc(F)cc3F)cc2C1=O (centres unmarked) [8-(2,4-difluoro-phenoxy)-2-{1-[4-(4-fluoro-benzylamino)-piperidine-1-carbonyl]-2-methyl-propyl}-2,3-dihydro-benzo[c]azepin-1-one]",≤ 10 nM
12,"CC(C)C(COC(=O)NC1CCN(Cc2ccccc2)CC1)N1CC(=O)Nc2ccc(Oc3ccc(F)cc3)cc2C1=O (centres unmarked) [(1-benzyl-piperidin-4-yl)-carbamic acid 2-[7-(4-fluoro-phenoxy)-2,5-dioxo-1,2,3,5-tetrahydro-benzo[e][1,4]diazepin-4-yl]-3-methyl-butyl ester]",50 to 500 nM
13,"CC(C)(CO)NCc1cccc([C@@H](C2CC2)N2CCc3ccc(Oc4ccc(F)cc4F)cc3C2=O)n1 [(R)-2-(cyclopropyl(6-((1-hydroxy-2-methylpropan-2-ylamino)methyl)pyridin-2-yl)methyl)-7-(2,4-difluorophenoxy)-3,4-dihydroisoquinolin-1(2H)-one]",≤ 10 nM
14,"O=C1c2cc(Oc3ccc(F)cc3F)ccc2CCN1[C@@H](c1cccc(CNCC(F)F)n1)C1CC1 [(R)-2-(cyclopropyl(6-((2,2-difluoroethylamino)methyl)pyridin-2-yl)methyl)-7-(2,4-difluorophenoxy)-3,4-dihydroisoquinolin-1(2H)-one]",≤ 10 nM
15,"O=C1c2cc(Oc3ccc(F)cc3F)ccc2CCN1[C@@H](c1cccc(CNCCF)n1)C1CC1 [(R)-2-(cyclopropyl(6-((2-fluoroethylamino)methyl)pyridin-2-yl)methyl)-7-(2,4-difluorophenoxy)-3,4-dihydroisoquinolin-1(2H)-one]",≤ 10 nM
16,"O=C1c2cc(Oc3ccc(F)cc3F)ccc2CCN1[C@@H](c1cccc(CNC2CC2)n1)C1CC1 [(R)-2-(cyclopropyl(6-((cyclopropylamino)methyl)pyridin-2-yl)methyl)-7-(2,4-difluorophenoxy)-3,4-dihydroisoquinolin-1(2H)-one]",≤ 10 nM
17,"O=C1c2cc(Oc3ccc(F)cc3F)ccc2CCN1[C@@H](c1cccc(CNCC2CC2)n1)C1CC1 [(R)-2-(cyclopropyl(6-((cyclopropylmethylamino)methyl)pyridin-2-yl)methyl)-7-(2,4-difluorophenoxy)-3,4-dihydroisoquinolin-1(2H)-one]",≤ 10 nM
18,"Cc1cc(F)ccc1Oc1ccc2c(c1)C(=O)N(C(C(=O)NC1CCN(Cc3ccccc3)CC1)C(C)C)Cc1ncc(C)n1-2 (centres unmarked) [N-(1-benzyl-piperidin-4-yl)-2-[8-(4-fluoro-2-methyl-phenoxy)-1-methyl-6-oxo-4H,6H-3,5,10b-triaza-benzo[e]azulen-5-yl]-3-methyl-butyramide]",≤ 10 nM
19,Cc1ccccc1Oc1ccc2ncn(C(C(=O)NC3CCN(Cc4ccccc4)CC3)C(C)C)c(=O)c2c1 (centres unmarked) [N-(1-benzyl-piperidin-4-yl)-3-methyl-2-(4-oxo-6-o-tolyloxy-4H-quinazolin-3-yl)-butyramide],10 to 50 nM
20,"CC(C)C(COC(=O)NC1CCN(Cc2ccc(F)cc2)CC1)N1CC(=O)Nc2ccc(Oc3ccc(F)cc3)cc2C1=O (centres unmarked) [[1-(4-Fluoro-benzyl)-piperidin-4-yl]-carbamic acid 2-[7-(4-fluoro-phenoxy)-2,5-dioxo-1,2,3,5-tetrahydro-benzo[e][1,4]diazepin-4-yl]-3-methyl-butyl ester]",50 to 500 nM
